The first assay addresses PD-1/PD-L1 (Homo sapiens (Human), UniProt Q9NZQ7). The experiment in a line: PD-1/PD-L1 Homogenous Time-Resolved Fluorescence (HTRF) binding assay. The following applies: PD-1-Ig / PD-L1-His HTRF; value given as number; read-out: Range or IC50. From the text:
The ability of the compounds of formula (I) to bind to PD-L1 was investigated using a PD-1/PD-L1 Homogenous Time-Resolved Fluorescence (HTRF) binding assay.
Homogenous Time-Resolved Fluorescence (HTRF) binding assay.
The interaction of PD-1 and PD-L1 can be assessed using soluble, purified preparations of the extracellular domains of the two proteins. The PD-1 and PD-L1 protein extracellular domains were expressed as fusion proteins with detection tags, for PD-1, the tag was the Fc portion of Immunoglobulin (PD-1-Ig) and for PD-L1 it was the 6 histidine motif (PD-L1-His). All binding studies were performed in an HTRF assay buffer consisting of dPBS supplemented with 0.1% […] bovine serum albumin and 0.05% (v/v) Tween-20. For the h/PD-L1-His binding assay, inhibitors were pre-incubated with PD-L1-His (10 nM final) for 15 m in 4 μl of assay buffer, followed by addition of PD-1-Ig (20 nM final) in 1 μl of assay buffer and further incubation for 15 m. HTRF detection was achieved using europium crypate-labeled anti-Ig (1 nM final) and allophycocyanin (APC) labeled anti-His (20 nM final). Antibodies were diluted in HTRF detection buffer and 5 μl was dispensed on top of the binding reaction. The reaction mixture was allowed to equilibrate for 30 minutes and the resulting signal (665 nm/620 nm ratio) was obtained using an EnVision fluorometer. Additional binding assays were established between the human proteins PD-1-Ig/PD-L2-His (20 & 5 nM, respectively) and CD8O-His/PD-L1-Ig (100 & 10 nM, respectively).
Recombinant Proteins: Human PD-1 (25-167) with a C-terminal human Fc domain of immunoglobulin G (Ig) epitope tag [hPD-1 (25-167)-3S-IG] and human PD-L1 (18-239) with a C-terminal His epitope tag [hPD-L1(18-239)-TVMV-His] were expressed in HEK293T cells and purified sequentially by ProteinA affinity chromatography and size exclusion chromatography. Human PD-L2-His and CD80-His was obtained through commercial sources.
The table below lists the IC50 values for representative examples of this disclosure measured in the PD-1/PD-L1 Homogenous Time-Resolved Fluorescence (HTRF) binding assay. Ranges are as follows: A=0.18 nM-0.99 nM; B=1.0 nM-5.0 nM; C=5.01 nM-10.1 nM; D=10.2 nM-200 nM; E=201 nM→10 uM
Background: TR-FRET usually uses a lanthanide donor and a delayed reading to cut background.
PD-1/PD-L1, sequence (Q9NZQ7 other isoform, or with tags, fused parts or gaps): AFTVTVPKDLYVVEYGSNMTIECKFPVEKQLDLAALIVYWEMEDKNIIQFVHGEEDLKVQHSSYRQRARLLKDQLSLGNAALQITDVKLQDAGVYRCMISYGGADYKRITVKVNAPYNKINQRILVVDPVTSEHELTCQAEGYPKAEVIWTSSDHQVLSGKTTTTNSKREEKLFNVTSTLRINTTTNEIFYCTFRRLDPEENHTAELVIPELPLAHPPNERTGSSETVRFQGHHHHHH
Usually IC50 stands for the concentration needed to halve the response being measured. In the case of `CCC[C@H](NCc1cc(Cl)c(OCc2cccc(-c3ccc4oc(N5CCN(C)CC5)nc4c3)c2C)cc1OCc1cncc(C#N)c1)C(=O)O` [Example 2012, (S)-2-((5-chloro-2-((5-cyanopyridin-3-yl)methoxy)-4-((2-methyl-3-(2-(4-methylpiperazin-1-yl)benzo[d]oxazol-5-yl)benzyl)oxy)benzyl)amino)pentanoic Acid], the IC50 is 7.2 nM.

Still in this assay, the particulars now being: PD-1-Ig / PD-L1-His HTRF; value given as range class; read-out: Range or IC50.
As for `Cc1c(COc2cc(OCc3cncc(C#N)c3)c(CN[C@@H](CO)C(=O)O)cc2Cl)cccc1-c1ccc2oc(N3CCN(C)CC3)nc2c1` [Example 2010, (5-chloro-2-((5-cyanopyridin-3-yl)methoxy)-4-((2-methyl-3-(2-(4-methylpiperazin-1-yl)benzo[d]oxazol-5-yl)benzyl)oxy)benzyl)-L-serine], the IC50 fell in the range of 1 to 5 nM.

For the molecule `Cc1c(COc2cc(OCc3cncc(C#N)c3)c(CN[C@@](C)(CO)C(=O)O)cc2Cl)cccc1-c1ccc2oc(N3CCN(C)CC3)nc2c1` [Example 2011, (S)-2-((5-chloro-2-((5-cyanopyridin-3-yl)methoxy)-4-((2-methyl-3-(2-(4-methylpiperazin-1-yl)benzo[d]oxazol-5-yl)benzyl)oxy)benzyl)amino)-3-hydroxy-2-methylpropanoic Acid], the IC50 was 1 to 5 nM.

For `Cc1c(COc2cc(OCc3cncc(C#N)c3)c(CN[C@H](C(=O)O)C(C)C)cc2Cl)cccc1-c1ccc2oc(N3CCN(C)CC3)nc2c1` [Example 2013, (S)-2-((5-chloro-2-((5-cyanopyridin-3-yl)methoxy)-4-((2-methyl-3-(2-(4-methylpiperazin-1-yl)benzo[d]oxazol-5-yl)benzyl)oxy)benzyl)amino)-3-methylbutanoic Acid], the concentration for half-maximal inhibition (IC50) fell in the range of 1 to 5 nM.

With `Cc1c(COc2cc(OCc3cncc(C#N)c3)c(CN(C)C(CO)CO)cc2Cl)cccc1-c1ccc2oc(N3CCN(C)CC3)nc2c1` [Example 2014], the IC50 was 1 to 5 nM.

On to `Cc1c(COc2cc(OCc3cncc(C#N)c3)c(CN(C)C(C)(CO)CO)cc2Cl)cccc1-c1ccc2oc(N3CCN(C)CC3)nc2c1` [Example 2015], for which the IC50 fell in the range of 0.18 to 0.99 nM.

As to `Cc1c(COc2cc(OCc3cncc(C#N)c3)c(CN(C)[C@@H](CO)C(=O)O)cc2Cl)cccc1-c1ccc2oc(N3CCN(C)CC3)nc2c1` [Example 2016, N-(5-chloro-2-((5-cyanopyridin-3-yl)methoxy)-4-((2-methyl-3-(2-(4-methylpiperazin-1-yl)benzo[d]oxazol-5-yl)benzyl)oxy)benzyl)-N-methyl-L-serine], the IC50 was 1 to 5 nM.

Regarding `Cc1c(COc2cc(OCc3cncc(C#N)c3)c(CN(C)[C@@](C)(CO)C(=O)O)cc2Cl)cccc1-c1ccc2oc(N3CCN(C)CC3)nc2c1` [Example 2017, (S)-2-((5-chloro-2-((5-cyanopyridin-3-yl)methoxy)-4-((2-methyl-3-(2-(4-methylpiperazin-1-yl)benzo[d]oxazol-5-yl)benzyl)oxy)benzyl)(methyl)amino)-3-hydroxy-2-methylpropanoic Acid], the IC50 lay in the range of 0.18 to 0.99 nM.

On to `CCC[C@@H](C(=O)O)N(C)Cc1cc(Cl)c(OCc2cccc(-c3ccc4oc(N5CCN(C)CC5)nc4c3)c2C)cc1OCc1cncc(C#N)c1` [Example 2018, (S)-2-((5-chloro-2-((5-cyanopyridin-3-yl)methoxy)-4-((2-methyl-3-(2-(4-methylpiperazin-1-yl)benzo[d]oxazol-5-yl)benzyl)oxy)benzyl)(methyl)amino)pentanoic Acid], for which the IC50 fell in the range of 1 to 5 nM.
